“And” between values parts separate entries of the source, which are not always exact repeats. Equal entries are not always repeated. Toxic doses and inconclusive results are not listed.
Tested on: C3H/He mice, Gardner lymphosarcoma 6C3HED ip, survival T/C
Assay: NCI In Vivo Anticancer Drug Screen. Data for tumor model Lymphosarcoma Gardner 6C3HED (intraperitoneal) in C3H/He mice
Conditions: higher = longer survival
Protocol: The antitumor activity of compounds was measured in mice bearing transplantable tumors. Survival or tumor size were measured and the results are expressed as the measurement made in the treated group (T) divided by the measurement made in the vehicle treated control group (C). The tumor model used in this assay is Lymphosarcoma Gardner 6C3HED (intraperitoneal) in C3H/He mice

[1] = endpoint: survival time, mean or median, dose: 0.5 mg/kg/injection, schedule: Q01DX010 (ip), vehicle: saline
[2] = endpoint: survival time, mean or median, dose: 1.0 mg/kg/injection, schedule: Q01DX010 (ip), vehicle: saline
[3] = endpoint: survival time, mean or median, dose: 2.0 mg/kg/injection, schedule: Q01DX010 (ip), vehicle: saline
[4] = endpoint: survival time, mean or median, dose: 4.0 mg/kg/injection, schedule: Q01DX010 (ip), vehicle: saline
[5] = endpoint: survival time, mean or median, dose: 0.25 mg/kg/injection, schedule: Q01DX010 (ip), vehicle: saline
[6] = endpoint: survival time, mean or median, dose: 5.0 mg/kg/injection, schedule: Q01DX010 (ip), vehicle: saline
[7] = endpoint: survival time, mean or median, dose: 62.5 mg/kg/injection, schedule: Q01DX010 (ip), vehicle: saline
[8] = endpoint: survival time, mean or median, dose: 125.0 mg/kg/injection, schedule: Q01DX010 (ip), vehicle: saline
[9] = endpoint: survival time, mean or median, dose: 250.0 mg/kg/injection, schedule: Q01DX010 (ip), vehicle: saline
[10] = endpoint: survival time, mean or median, dose: 12.5 mg/kg/injection, schedule: Q01DX010 (ip), vehicle: saline
[11] = endpoint: survival time, mean or median, dose: 25.0 mg/kg/injection, schedule: Q01DX010 (ip), vehicle: saline
[12] = endpoint: survival time, mean or median, dose: 50.0 mg/kg/injection, schedule: Q01DX010 (ip), vehicle: saline
[13] = endpoint: survival time, mean or median, dose: 100.0 mg/kg/injection, schedule: Q01DX010 (ip), vehicle: saline
[14] = endpoint: survival time, mean or median, dose: 12.5 mg/kg/injection, schedule: Q01DX010 (sc), vehicle: steriod suspending solution
[15] = endpoint: survival time, mean or median, dose: 25.0 mg/kg/injection, schedule: Q01DX010 (sc), vehicle: steriod suspending solution
[16] = endpoint: survival time, mean or median, dose: 50.0 mg/kg/injection, schedule: Q01DX010 (sc), vehicle: steriod suspending solution
[17] = endpoint: survival time, mean or median, dose: 32.0 mg/kg/injection, schedule: Q01DX010 (ip), vehicle: saline

## NC(=O)N(CCCl)N=O
[1]
  T/C: 204 % of control
[2]
  T/C: 228 % of control
[3]
  T/C: 161 % of control
[4]
  T/C: 100 % of control

## CC[C@@H](c1ccc(O)cc1)[C@@H](CC)c1ccc(O)cc1
endpoint: survival time, mean or median, dose: 25.0 mg/kg/injection, schedule: Q01DX010 (sc), vehicle: water
  T/C: 96 % of control
endpoint: survival time, mean or median, dose: 50.0 mg/kg/injection, schedule: Q01DX010 (sc), vehicle: water
  T/C: 93 % of control
endpoint: survival time, mean or median, dose: 100.0 mg/kg/injection, schedule: Q01DX010 (sc), vehicle: water
  T/C: 93 % of control

## Nc1ncnc2c1ccn2C1OC(CO)C(O)C1O (stereo not drawn)
[5]
  T/C: 90 % of control

## CC1CCOS(=O)O1 (stereo not drawn)
endpoint: survival time, mean or median, dose: 2.5 mg/kg/injection, schedule: Q01DX010 (ip), vehicle: saline
  T/C: 93 % of control
[6]
  T/C: 93 % of control
endpoint: survival time, mean or median, dose: 10.0 mg/kg/injection, schedule: Q01DX010 (ip), vehicle: saline
  T/C: 92 % of control and 103 % of control
endpoint: survival time, mean or median, dose: 20.0 mg/kg/injection, schedule: Q01DX010 (ip), vehicle: saline
  T/C: 89 % of control and 96 % of control

## CO[C@@H]1[C@@H](OC2OC(C)C(OC3CC(C)(O)C(OC(=O)CC(C)C)C(C)O3)C(N(C)C)C2O)[C@@H](CC=O)C[C@@H](C)C(=O)/C=C/C2O[C@H]2C[C@@H](C)OC(=O)C[C@H]1OC(C)=O (stereo partly drawn)
endpoint: survival time, mean or median, dose: 18.8 mg/kg/injection, schedule: Q01DX010 (ip), vehicle: saline
  T/C: 94 % of control
endpoint: survival time, mean or median, dose: 37.5 mg/kg/injection, schedule: Q01DX010 (ip), vehicle: saline
  T/C: 102 % of control

## c1ccc(CCSc2ncnc3nc[nH]c23)cc1
[7]
  T/C: 96 % of control
[8]
  T/C: 96 % of control and 100 % of control
[9]
  T/C: 93 % of control and 96 % of control
endpoint: survival time, mean or median, dose: 500.0 mg/kg/injection, schedule: Q01DX010 (ip), vehicle: saline
  T/C: 93 % of control and 96 % of control

## COC1C(OC(=O)/C=C/C=C/C=C/C=C/C(=O)O)CCC2(CO2)C1C1(C)OC1CC=C(C)C (stereo not drawn)
[10]
  T/C: 102 % of control
[11]
  T/C: 110 % of control
[12]
  T/C: 110 % of control
[13]
  T/C: 100 % of control

## Nc1nc(=S)c2ncn(C3OC(CO)C(O)C3O)c2[nH]1 (stereo not drawn)
endpoint: median survival time, dose: 0.5 mg/kg/injection, schedule: Q01DX009 (ip), vehicle: saline
  T/C: 114 % of control
endpoint: median survival time, dose: 1.0 mg/kg/injection, schedule: Q01DX009 (ip), vehicle: saline
  T/C: 100 % of control
endpoint: median survival time, dose: 2.0 mg/kg/injection, schedule: Q01DX009 (ip), vehicle: saline
  T/C: 105 % of control
endpoint: median survival time, dose: 4.0 mg/kg/injection, schedule: Q01DX009 (ip), vehicle: saline
  T/C: 94 % of control
endpoint: median survival time, dose: 8.0 mg/kg/injection, schedule: Q01DX009 (ip), vehicle: saline
  T/C: 96 % of control
[1]
  T/C: 119 % of control
[2]
  T/C: 112 % of control and 115 % of control
[3]
  T/C: 100 % of control and 111 % of control
[4]
  T/C: 96 % of control

## O=c1[nH]c(=O)n(C2CC(O)C(CO)O2)cc1C(F)(F)F (stereo not drawn)
endpoint: survival time, mean or median, dose: 31.3 mg/kg/injection, schedule: Q01DX010 (ip), vehicle: saline
  T/C: 119 % of control
[7]
  T/C: 119 % of control
[8]
  T/C: 100 % of control

## NC(CC(=O)NO)C(=O)O (stereo not drawn)
endpoint: median survival time, dose: 100.0 mg/kg/injection, schedule: Q01DX005 (ip), vehicle: water
  T/C: 96 % of control
endpoint: median survival time, dose: 200.0 mg/kg/injection, schedule: Q01DX005 (ip), vehicle: water
  T/C: 107 % of control
endpoint: median survival time, dose: 400.0 mg/kg/injection, schedule: Q01DX005 (ip), vehicle: water
  T/C: 115 % of control
endpoint: median survival time, dose: 800.0 mg/kg/injection, schedule: Q01DX005 (ip), vehicle: water
  T/C: 111 % of control

## Nc1ncnc2c1ncn2C1OC(COP(=O)(O)O)C(O)C1O (stereo not drawn)
endpoint: median survival time, dose: 18.3 mg/kg/injection, schedule: Q01DX003 (ip), vehicle: saline
  T/C: 100 % of control
endpoint: median survival time, dose: 18.3 mg/kg/injection, schedule: Q12HX006 (ip), vehicle: saline
  T/C: 109 % of control
endpoint: median survival time, dose: 36.6 mg/kg/injection, schedule: Q01DX003 (ip), vehicle: saline
  T/C: 95 % of control
endpoint: median survival time, dose: 36.6 mg/kg/injection, schedule: Q12HX006 (ip), vehicle: saline
  T/C: 111 % of control
endpoint: median survival time, dose: 73.2 mg/kg/injection, schedule: Q01DX003 (ip), vehicle: saline
  T/C: 90 % of control
endpoint: median survival time, dose: 73.3 mg/kg/injection, schedule: Q12HX006 (ip), vehicle: saline
  T/C: 104 % of control

## CN(C)/N=N/c1nc[nH]c1C(N)=O
[11]
  T/C: 300 % of control
[12]
  T/C: 300 % of control and 311 % of control
[13]
  T/C: 266 % of control and 300 % of control
endpoint: survival time, mean or median, dose: 200.0 mg/kg/injection, schedule: Q01DX010 (ip), vehicle: saline
  T/C: 118 % of control and 296 % of control

## COc1cccc2c1C(=O)c1c(O)c3c(c(O)c1C2=O)C[C@@](O)(C(C)=O)C[C@@H]3OC1CC(N)C(O)C(C)O1 (stereo partly drawn)
endpoint: survival time, mean or median, dose: 0.13 mg/kg/injection, schedule: Q01DX010 (ip), vehicle: saline
  T/C: 92 % of control
[5]
  T/C: 111 % of control
[1]
  T/C: 119 % of control
[2]
  T/C: 300 % of control
[3]
  T/C: 173 % of control

## CC(=O)O[C@]1(C(C)=O)CC[C@H]2[C@@H]3C[C@H](C)C4=CC(=O)C=C[C@]4(C)[C@@]3(F)[C@@H](O)C[C@@]21C
endpoint: survival time, mean or median, dose: 6.25 mg/kg/injection, schedule: Q01DX010 (sc), vehicle: steriod suspending solution
  T/C: 100 % of control
[14]
  T/C: 96 % of control
[15]
  T/C: 92 % of control
[16]
  T/C: 92 % of control

## COc1ccc(/C=N/NC(N)=S)cc1
[17]
  T/C: 96 % of control
endpoint: survival time, mean or median, dose: 64.0 mg/kg/injection, schedule: Q01DX010 (ip), vehicle: saline
  T/C: 92 % of control
endpoint: survival time, mean or median, dose: 128.0 mg/kg/injection, schedule: Q01DX010 (ip), vehicle: saline
  T/C: 100 % of control
endpoint: survival time, mean or median, dose: 256.0 mg/kg/injection, schedule: Q01DX010 (ip), vehicle: saline
  T/C: 96 % of control

## CS(=O)(=O)OCCCCOS(C)(=O)=O
endpoint: survival time, mean or median, dose: 1.56 mg/kg/injection, schedule: Q01DX010 (ip), vehicle: saline
  T/C: 95 % of control
endpoint: survival time, mean or median, dose: 3.13 mg/kg/injection, schedule: Q01DX010 (ip), vehicle: saline
  T/C: 90 % of control
endpoint: survival time, mean or median, dose: 6.25 mg/kg/injection, schedule: Q01DX010 (ip), vehicle: saline
  T/C: 95 % of control
[10]
  T/C: 104 % of control

## O[C@H](CN1CC1)[C@@H](O)CN1CC1
endpoint: survival time, mean or median, dose: 125.0 micrograms/kg/injection, schedule: Q01DX010 (ip), vehicle: saline
  T/C: 103 % of control
endpoint: survival time, mean or median, dose: 250.0 micrograms/kg/injection, schedule: Q01DX010 (ip), vehicle: saline
  T/C: 114 % of control and 203 % of control
endpoint: survival time, mean or median, dose: 500.0 micrograms/kg/injection, schedule: Q01DX010 (ip), vehicle: saline
  T/C: 169 % of control

## Nc1ncnc2c1ncn2C1OC(CO)C(O)C1O (stereo not drawn)
endpoint: median survival time, dose: 12.5 mg/kg/injection, schedule: Q01DX003 (ip), vehicle: saline
  T/C: 90 % of control
endpoint: median survival time, dose: 12.5 mg/kg/injection, schedule: Q11DX018 (ip), vehicle: saline with Tween-80
  T/C: 96 % of control
endpoint: median survival time, dose: 12.5 mg/kg/injection, schedule: Q12HX006 (ip), vehicle: saline
  T/C: 108 % of control
endpoint: median survival time, dose: 25.0 mg/kg/injection, schedule: Q01DX003 (ip), vehicle: saline
  T/C: 95 % of control
endpoint: median survival time, dose: 25.0 mg/kg/injection, schedule: Q12HX006 (ip), vehicle: saline
  T/C: 112 % of control
endpoint: median survival time, dose: 50.0 mg/kg/injection, schedule: Q01DX003 (ip), vehicle: saline
  T/C: 100 % of control
endpoint: median survival time, dose: 50.0 mg/kg/injection, schedule: Q12HX006 (ip), vehicle: saline
  T/C: 120 % of control

## NC(Cc1ccc(N(CCCl)CCCl)cc1)C(=O)O (stereo not drawn)
endpoint: survival time, mean or median, dose: 1.25 mg/kg/injection, schedule: Q01DX010 (ip), vehicle: saline
  T/C: 107 % of control
[6]
  T/C: 89 % of control and 119 % of control

## CN1CC[C@]23c4c5ccc(O)c4O[C@H]2C(=O)CC[C@H]3[C@H]1C5
[4]
  T/C: 103 % of control
endpoint: survival time, mean or median, dose: 8.0 mg/kg/injection, schedule: Q01DX010 (ip), vehicle: saline
  T/C: 100 % of control
endpoint: survival time, mean or median, dose: 16.0 mg/kg/injection, schedule: Q01DX010 (ip), vehicle: saline
  T/C: 103 % of control
[17]
  T/C: 90 % of control and 100 % of control

## CCC1=C(c2ccc(OC)cc2)CCC(C(=O)O)C1C (stereo not drawn)
[14]
  T/C: 96 % of control
[15]
  T/C: 107 % of control
[16]
  T/C: 92 % of control
endpoint: survival time, mean or median, dose: 100.0 mg/kg/injection, schedule: Q01DX010 (sc), vehicle: steriod suspending solution
  T/C: 100 % of control

## Cc1n[nH]c(=O)[nH]c1=O
[8]
  T/C: 106 % of control
[9]
  T/C: 90 % of control
endpoint: survival time, mean or median, dose: 1000.0 mg/kg/injection, schedule: Q01DX010 (ip), vehicle: saline
  T/C: 90 % of control

— PubChem BioAssay AID230 (DTP/NCI, 2004)
